Laboratory results: the supplement of paper PMC10307832

Legend:
Assay in all cases: relative viability (nuclei count vs DMSO), 5 days (fraction); higher = more cells survive
[1] = compound: CCn1c(-c2nonc2N)nc2c(C#CC(C)(C)O)ncc(OC[C@H]3CCCNC3)c21 + Cc1nc(Nc2ncc(C(=O)Nc3c(C)cccc3Cl)s2)cc(N2CCN(CCO)CC2)n1 [Dasatinib] (partner 0.075 µM)
Summary of the method: (§1)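 Lung cancer cell lines in 1536-well plates got either a single drug or a fixed anchor-drug dose together with five library-drug doses (not always all listed) in √10 steps, by pin tool, on the day after seeding. Nuclei were counted after 5 days, and relative viability is the treated-to-vehicle ratio of nuclei counts. Values are medians of duplicate plates.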

[2] = compound: CCOC1=CC=CC=C1N=NC2=C(NN(C2=O)C3=NC(=CS3)C4=CC=CC=C4)C [BAM7] + Nc1ncn([C@H]2C[C@H](O)[C@@H](CO)O2)c(=O)n1 [Decitabine] (partner 2 µM)
Summary of the method: as §1

[3] = compound: CCn1c(-c2nonc2N)nc2c(C#CC(C)(C)O)ncc(OC[C@H]3CCCNC3)c21 + CCNC(=O)c1noc(-c2cc(C(C)C)c(O)cc2O)c1-c1ccc(CN2CCOCC2)cc1 [Luminespib] (partner 0.01 µM)
Summary of the method: as §1

[4] = compound: CCOC1=CC=CC=C1N=NC2=C(NN(C2=O)C3=NC(=CS3)C4=CC=CC=C4)C [BAM7] + CC(C)C[C@H](NC(=O)[C@H](Cc1ccccc1)NC(=O)c1cnccn1)B(O)O [Bortezomib] (partner 0.002 µM)
Summary of the method: as §1

Cell Line | relative viability ([1]; first compound 0.01 µM) | relative viability ([1]; first compound 0.03162 µM) | relative viability ([1]; first compound 0.1 µM) | relative viability ([1]; first compound 0.3162 µM) | relative viability ([1]; first compound 1 µM) | relative viability ([2]; first compound 0.5 µM) | relative viability ([2]; first compound 5 µM) | relative viability ([2]; first compound 15.81 µM) | relative viability ([2]; first compound 50 µM) | relative viability ([3]; first compound 0.01 µM) | relative viability ([3]; first compound 0.03162 µM) | relative viability ([3]; first compound 0.1 µM) | relative viability ([3]; first compound 0.3162 µM) | relative viability ([3]; first compound 1 µM) | relative viability ([4]; first compound 0.5 µM) | relative viability ([4]; first compound 5 µM) | relative viability ([4]; first compound 15.81 µM) | relative viability ([4]; first compound 50 µM)
LC-2-ad | 0.384 | 0.487 | 0.509 | 0.414 | 0.641 | 0.786 | 0.774 | 0.751 | 0.689 | 0.964 | 0.967 | 1.1 | 1.04 | 0.974 | 1.05 | 0.974 | 0.957 | 1
LCLC-97TM1 | 0.799 | 0.982 | 0.803 | 0.739 | 0.845 | 0.252 | 0.269 |  | 0.24 | 0.707 | 0.914 | 0.609 | 0.658 | 0.741 | 0.721 | 0.608 | 0.898 | 0.76
LCLC-103H | 0.381 | 0.451 | 0.445 | 0.444 | 0.433 | 0.751 | 0.77 | 0.709 | 0.708 | 0.936 | 0.912 | 0.94 | 0.735 | 0.863 | 1.15 | 1.1 | 1.1 | 1.18
LOU-NH91 | 0.564 | 0.575 | 0.543 | 0.537 | 0.337 | 0.815 | 0.859 | 0.783 | 0.799 | 0.34 | 0.365 | 0.374 | 0.319 | 0.316 | 0.476 | 0.508 | 0.546 | 0.486
LU99A | 0.499 | 0.508 | 0.662 | 0.51 | 0.451 | 0.81 | 0.95 | 0.933 | 0.876 | 0.254 | 0.21 | 0.239 | 0.307 | 0.248 | 1.21 | 1.22 | 1.34 | 1.15
LXF-289 | 0.249 | 0.223 | 0.205 | 0.234 | 0.187 | 0.341 | 0.339 | 0.353 | 0.407 | 0.604 | 0.822 | 0.627 | 0.617 | 0.701 | 1.07 | 1.1 | 1.02 | 1.01
NCI-H23 | 0.798 | 0.631 | 0.795 | 1.05 | 0.884 | 0.347 | 0.332 | 0.322 | 0.304 | 0.235 | 0.202 | 0.242 | 0.219 | 0.237 | 1.23 | 1.05 | 0.933 | 1.12
NCI-H322M | 0.246 | 0.233 | 0.245 | 0.264 | 0.271 | 0.761 | 0.722 | 0.742 | 0.692 | 0.784 | 0.847 | 0.855 | 0.665 | 0.682 | 1.2 | 1.2 | 1.05 | 1.02
NCI-H441 | 0.585 | 0.593 | 0.499 | 0.637 | 0.505 | 0.291 | 0.251 | 0.235 | 0.209 | 0.434 | 0.312 | 0.349 | 0.379 | 0.367 | 0.48 | 0.453 | 0.464 | 0.447
